{
  "source": "patent US6716878B1",
  "about": "“Antimicrobial agents” (Vernalis (Oxford) Limited, priority 1999, dated 2004)",
  "key": {"[1]": {"tested_on": "E. coli strain DH5α", "test": "Minimal inhibitory concentration (MIC) against E. coli, two fold serial dilutions in 2xYT broth", "type": "cell-based", "details": "Escherichia coli; E. coli strain DH5α; 2xYT broth, 37° C., 18 hours; lowest drug concentration that inhibited visible growth; read-out: MIC (E. coli)", "experimental": "(§1) Where MIC values are quoted for the compounds of the examples, those results were obtained by the method described in the Biological Example.\n(§2) Minimal inhibitory concentrations (MIC) of inhibitors against E. coli strain DH5α (Genotype; F-φ80d/acZΔM 15Δ(lacZYA-argF)U 169 deoR recA1 endA1 hsdR17(rk^−, mk^+)phoA supE44λ^−thi-1 gyrA96 re/A1) obtained from GibcoBRL Life Technologies, or Staphylococcus capitis (American Type Culture Collection number 35661) were determined as follows. Stock solutions of each test compound were prepared by dissolution of the compound in dimethylsulfoxide at 10 mM. For the determination of the minimal inhibitory concentration, two fold serial dilutions were prepared in 2×YT broth (typtone 16 g/l, yeast extract 10 g/l, sodium chloride 5 g/l obtained from BIO 101 Inc, 1070 Joshua Way, Vista, Calif. 92083, USA) to yield 0.05 ml compound-containing medium per well. Inocula were prepared from cultures grown overnight in 2×YT broth at 37° C. Cell densities were adjusted to absorbance at 660 nm (a660)=0.1; the optical density-standardised preparations were diluted 1:1000 in 2×YT broth; and each well inoculated with 0.05 ml of the diluted bacteria. Microtiter plates were incubated at 37° C. for 18 hours in a humidified incubator. The MIC (μM) was recorded as the lowest drug concentration that inhibited visible growth."}, "[2]": {"tested_on": "Staphylococcus capitis (American Type Culture Collection number 35661)", "test": "Minimal inhibitory concentration (MIC) against Staphylococcus capitis, two fold serial dilutions in 2xYT broth", "type": "cell-based", "details": "ATCC35661, Staphylococcus capitis ATCC 35661, 37° C., 18 hours, lowest drug concentration that inhibited visible growth, read-out: MIC (S. capitis)", "experimental": "as §1, §2"}},
  "data": [
    {"smiles": "CCCC[C@H](CN(O)C=O)C(=O)N[C@H](C(=O)c1ccc(NCCC)cc1)C(C)(C)C", "note": "[Example 31, 2(R)-[(N-Formyl-N-hydroxyamino)-methyl]-hexanoic Acid-(2′,2′-dimethyl-1′(S)-(4-propylaminobenzoyl)-propyl)amide]", "values": [
      {"measurement": "MIC", "setting": "[1]", "value": 12.5, "unit": "µM"},
      {"measurement": "MIC", "setting": "[2]", "value": 3.1, "unit": "µM"}
    ]}
  ]
}
